From PubChem BioAssay (NCI)
Values joined by “and” are separate entries in the source; they are usually repeats but may differ in a detail not shown here. Equal values may be shown once.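 48-hour exposure; five concentrations; linearly interpolated endpoints. GI50 marks 50% less growth. The concentration for full growth arrest is given as TGI.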 Where a SMILES comes first, the peptide text is derived from it. The star is where a group is joined. Trt = c1ccc(C(c2ccccc2)(c2ccccc2)*)cc1; Cbz = O=C(OCc1ccccc1)*

Key:
Assay in all cases: NCI anticancer screen, dose series, 48 h
[1] = tested on: T-47D breast
[2] = tested on: A498 renal
[3] = tested on: HCC-2998 colon
[4] = tested on: MDA-MB-231 breast
[5] = tested on: SK-MEL-28 melanoma
[6] = tested on: UACC-62 melanoma
[7] = tested on: NCI-H460 lung
[8] = tested on: MOLT-4 leukemia

Row | Structure (SMILES) | GI50 [1] [µM] | TGI [1] [µM] | GI50 [2] [µM] | TGI [2] [µM] | GI50 [3] [µM] | TGI [3] [µM] | GI50 [4] [µM] | TGI [4] [µM] | GI50 [5] [µM] | TGI [5] [µM] | GI50 [6] [µM] | TGI [6] | GI50 [7] [µM] | TGI [7] [µM] | GI50 [8] [µM] | TGI [8] [µM]
1 | COc1ccc2nc3cc(Cl)ccc3c(NCCCNCCO)c2c1 | 0.625 | 3.41 | 0.197 | 1.5 | 0.609 | 2.17 | 0.47 | 2.71 | 1.38 | 3.06 | 0.807 | 2.54 µM | 0.275 | 1.2 | 0.413 | 3.4
2 | COc1cnc2c(c1)C(=O)c1c-2n(CCCNC2=NCCS2)c(=O)c2cc(F)ccc12 | 0.0762 | 17.2 | 0.264 | 1.63 | 12.8 | 28.6 | 1.14 | 2.57 | 12.1 | 24.9 | 0.344 | 14.6 µM | 0.0356 | 1.11 | 0.0421 | 0.514
3 | CO[C@H]1C[C@@H]2CC[C@@H](C)[C@@](O)(O2)C(=O)C(=O)N2CCCC[C@H]2C(=O)O[C@H]([C@H](C)C[C@@H]2CC[C@@H](OC(=O)C(C)(CO)CO)[C@H](OC)C2)CC(=O)[C@H](C)/C=C(\C)[C@@H](O)[C@@H](OC)C(=O)[C@H](C)C[C@H](C)\C=C/C=C/C=C/1C | – | > 10 | 0.00187 | – | – | > 10 | > 4.32 | > 10 | 0.0219 | > 10 | 0.0087 | > 10 µM | 0.00131 | > 10 | 0.22 | > 10
4 | CCCCN(CCCC)C(=O)[C@H](CC)[C@@H]1CC[C@@H](C)[C@@H]([C@H](C)[C@@H](O)[C@@H](C)C(=O)[C@H](CC)C2O[C@]3(C=C[C@@H](O)[C@]4(CC[C@@](C)([C@H]5CC[C@](O)(CC)[C@H](C)O5)O4)O3)[C@H](C)C[C@@H]2C)O1 (stereo not given in full) | 2.34 | 63.8 | 1.99 | 6.24 | 2.01 | 5.04 | 1.57 | 3.19 | 4.21 | 81.1 | 1.47 | 3.6 µM | 1.99 | 4.47 | 2.68 | 8.31
5 | CC(C)(C)c1cc(C(=O)Nc2ccccc2C(=O)NCCN)cc(C(C)(C)C)c1 | 1.76 | 3.51 | 2.38 | 6.44 | 1.83 | 3.4 | – | – | 1.91 | 3.64 | 1.83 | 3.44 µM | 1.94 | 3.67 | 2.2 | 4.86
6 | Cn1cc(/C=C\[N+](=O)[O-])c2ccccc21 | 55.6 | > 100 | 3.36 | 7.39 | 33.2 | > 100 | 23.4 | 78.8 | 23.3 | 50.3 | 83.6 | > 100 µM | 38.6 | > 100 | 23.7 | 58.4
7 | O=C1NC(=NCc2ccccc2Cl)S/C1=C\c1ccc2ncccc2c1 | > 25 | > 25 | 4.21 | > 21.5 | > 25 | > 25 | > 25 | > 25 | > 25 | > 25 | 17.8 | > 25 µM | 10.6 | > 25 | > 25 | > 25
8 | N#CCn1c(=O)c(Oc2ccc(F)cc2F)cc2cnc(NC3CCOCC3)nc21 | 12.3 | > 25 | 24.7 | > 25 | > 25 | > 25 | > 25 | > 25 | > 25 | > 25 | > 25 | > 25 µM | > 25 | > 25 | > 25 | > 25
9 | Oc1ccc(Br)cc1C=Nc1cccc(C(F)(F)F)c1 | – | > 100 | – | > 100 | – | 60.1 | – | > 100 | – | > 100 | – | 71.1 µM | – | > 100 | – | 83.8
10 | C=C1C[C@H]2C=Nc3cc(OCCCOc4cc5c(cc4OC)C(=O)N4CC(=C)C[C@H]4C=N5)c(OC)cc3C(=O)N2C1 | 0.0244 | 3.53 | – | 0.0578 | – | 0.0143 | 0.0185 | 0.0452 | – | 0.0436 | 0.000264 | 0.000834 µM and < 0.0123 µM | 0.000277 | 0.544 | – | 0.00105
11 | Clc1nccc2c(-c3csc(-c4c[nH]c5ccc(Br)cc45)n3)c[nH]c12 | 3.12 | 18 | 1.56 | 4.84 | 2.22 | 4.4 | 1.68 | 4.62 | 1.85 | 4.16 | 2.19 | 4.84 µM | 2.16 | 4.58 | 3.02 | 13.9
12 | O=C(Nc1ccc(Oc2ccc3nc(NC(=O)c4ccco4)[nH]c3c2)cc1)Nc1cc(C(F)(F)F)ccc1F | 2 | 8.19 | 0.929 | 5.4 | 2.44 | > 20.1 | 1.09 | 5.77 | 2.08 | 7.04 | 0.844 | 5.48 µM | 1.35 | 6.85 | 2.21 | 15.7
13 | COc1ccc(C(O)c2cc3c(N)c(C(=O)Nc4ccc(Cl)cc4)sc3nc2C)cc1 (stereo not given) | 3.29 | 50.5 | 3 | 12.4 | 3.04 | 20.8 | 4.9 | 28.8 | 6.49 | 57.7 | 1.86 | 32.8 µM | 2.3 | 6.25 | 3.09 | > 100
14 | c1ccc(-c2oc(-c3ccccc3)c(CN3CCCCC3)c2CN2CCCCC2)cc1 | 2.71 | 11.7 | 2.41 | 11.8 | 2.02 | 4.23 | 1.77 | 6.06 | 1.53 | 3.02 | 1.79 | 4.35 µM | 3.25 | 14.2 | 2.03 | 5.58
15 | COc1cc(/C=C/C(=O)c2cccc(-n3cc(-c4cc(OC)c(OC)c(OC)c4)[nH]c3=O)c2)cc(OC)c1OC | 3.08 | 22.8 | 20.3 | > 100 | 1.92 | 3.43 | 4.19 | 26.3 | 1.61 | 3.39 | 1.87 | 4.01 µM | 1.73 | 3.98 | 1.75 | 8.08
16 | COc1cc([N+](=O)[O-])c(OC)cc1-c1nc2sc(C)c(C)n2c1/C(N)=N/C(=N)N | – | – | – | – | > 100 | > 100 | – | – | > 100 | > 100 | – | – | > 100 | > 100 | > 100 | > 100
17 | CSC1=NC(=Nc2c(C)cccc2C)C2(CCC(C(C)(C)C)CC2)N1c1ccc(Cl)cc1 (stereo not given) | 20.8 | > 100 | > 100 | > 100 | 92.9 | > 100 | > 100 | > 100 | 99.6 | > 100 | 45.3 | > 100 µM | 4.68 | > 100 | 6.82 | > 100

Row | Structure (SMILES) | GI50 [1] [µM] | TGI [1] [µM] | GI50 [2] [µM] | TGI [2] [µM] | GI50 [3] [µM] | TGI [3] [µM] | GI50 [4] [µM] | TGI [4] [µM] | GI50 [5] [µM] | TGI [5] [µM] | GI50 [6] [µM] | TGI [6] | GI50 [7] [µM] | TGI [7] [µM] | GI50 [8] [µM] | TGI [8] [µM]
18 | O=C1NC(=S)S/C1=C\c1cn(-c2ccccc2)nc1-c1ccccc1 | 4.59 | 32.6 | 2.99 | 18.2 | 6.05 | 47.1 | 10.1 | 33.3 | 9.22 | > 100 | 3.36 | 15.1 µM | 5.5 | 19.2 | 14.8 | > 100
19 | O=C(O)C1=C/C(=C(/c2ccccc2)c2cc(C(=O)O)c(O)c3ccccc23)c2ccccc2C1=O | – | > 100 | – | > 100 | – | > 100 | – | > 100 | – | > 100 | – | > 100 µM | – | > 100 | – | > 100
20 | COc1ccc(-c2cc(=O)c3c(O)c(OC)c(OC)c(OC)c3o2)cc1OC | – | > 100 | – | > 100 | – | > 100 | – | > 100 | – | > 100 | – | > 100 µM | – | – | – | > 100
21 | CCN1CCN(c2nc(C)cc(N(CCCNc3ccnc4cc(Cl)ccc34)Cc3ccc4c(c3)OCO4)n2)CC1 | 2.04 | 4.53 | 1.38 | 4.23 | 1.62 | 3.85 | 1.2 | 2.9 | 1.61 | 3.11 | 1.81 | 3.32 µM | 1.53 | 3.54 | 1.2 | 4.35
22 | COc1ccc2c(c1)OC(N)=C(C#N)C2c1cc(OC)c(OC)c(OC)c1 (stereo not given) | > 100 | > 100 | 0.0222 | 0.148 | 0.0398 | > 100 | – | – | 0.0781 | > 100 | 0.0343 | > 100 µM | 0.0345 | – | 0.0365 | > 100
23 | O=C1NC(=NCCc2ccc(F)cc2)S/C1=C\c1ccc2ncccc2c1 | > 25 | > 25 | > 25 | > 25 | > 25 | > 25 | > 25 | > 25 | > 25 | > 25 | > 25 | > 25 µM | > 25 | > 25 | > 25 | > 25
24 | O=C1CC(c2c[nH]c3ccc(F)cc23)C(=O)N1 (stereo not given) | > 100 | > 100 | > 100 | > 100 | > 100 | > 100 | > 100 | > 100 | > 100 | > 100 | > 100 | > 100 µM | > 100 | > 100 | > 100 | > 100
25 | Nc1nnc2c(-c3ccccc3)[nH]nc2n1 | – | – | – | > 100 | – | > 100 | – | – | – | > 100 | – | – | – | > 100 | – | > 100
26 | O=C(CS(=O)(=O)c1nc2ccccc2nc1-c1ccccc1)Nc1ccc(F)cc1 | 56.6 | > 100 | 21.6 | > 100 | 13.3 | 26.9 | 34.7 | > 100 | > 100 | > 100 | 40.1 | > 100 µM | 88.8 | > 100 | – | –
27 | Cc1ccccc1N=Nc1c(O)ccc2ccccc12 | – | > 100 | – | – | – | – | – | > 100 | – | > 100 | – | > 100 µM | – | – | – | > 100
28 | CCOC(=O)c1c(-c2ccccc2)[n+](=O)c2cc(Cl)c(Cl)cc2n1[O-] | – | – | 18.4 | 33.9 | – | – | 2.09 | 5.55 | 13.7 | 36.3 | 5.11 | 22.6 µM | 18.9 | 46.7 | > 100 | > 100
29 | CCOC(=O)CSc1cc(Cl)c(C)cc1S(=O)(=O)/N=C(/N=C/c1ccc([N+](=O)[O-])s1)NNC | 12.5 | 40.1 | – | – | – | – | 11.7 | 29.7 | 16.1 | 29.7 | 14.1 | 30.8 µM | 35.1 | > 100 | 16.7 | 44.3
30 | CC(=O)Nc1ccc(C(=O)CCl)cc1 | 2.68 | 7.33 | – | – | 7.48 | 20.7 | 4.02 | 14.8 | 2.49 | 7.54 | 8.3 | 21.6 µM | 10.8 | 26 | 2.92 | 7.06
31 | COc1cccc2c1-c1nc(N)c3c(OC)cccc3c1C2=O | – | > 100 | – | > 100 | – | – | – | > 100 | – | > 100 | – | > 100 µM | – | – | – | > 100
32 | C/C(=N\O)c1ccc2ccc3ccccc3c2c1 | – | > 100 | – | – | – | – | – | > 100 | – | > 100 | – | 45.2 µM | – | > 100 | – | 52.9
33 | COC(=O)C(CO)NC(=O)C(CSC(c1ccccc1)(c1ccccc1)c1ccccc1)NC(=O)OCc1ccccc1 (stereo not given) (Cbz-Cys(Trt)-Ser-OMe; configuration not given here) | – | > 52 | – | – | – | 29 | – | 27.8 | – | 34 | – | 24.9 µM | – | 33.6 | – | > 32.1
